#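 The concentration for 50% growth inhibition is given as GI50. TGI: total growth inhibition.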
# Legend:
# Test in all cases: inhibition of tumour cell growth, NCI panel, 384-well format
# COLO 205 colon = test system: COLO 205 colon
# DU-145 prostate = test system: DU-145 prostate
# UACC-62 melanoma = test system: UACC-62 melanoma
# U251 glioblastoma = test system: U251 glioblastoma
# OVCAR-5 ovarian = test system: OVCAR-5 ovarian
# SK-OV-3 ovarian = test system: SK-OV-3 ovarian
# RPMI-8226 leukemia = test system: RPMI-8226 leukemia
# SK-MEL-2 melanoma = test system: SK-MEL-2 melanoma
# SW-620 colon = test system: SW-620 colon
# SN12C renal = test system: SN12C renal
# NCI/ADR-RES ovarian = test system: NCI/ADR-RES ovarian
# OVCAR-8 ovarian = test system: OVCAR-8 ovarian
# HCT-15 colon = test system: HCT-15 colon
compound,measurement,setting,value
Cn1cc(-c2ccc3c(c2)CCN3C(=O)Cc2cccc(C(F)(F)F)c2)c2c(N)ncnc21,GI50,COLO 205 colon,7.33 µM
same,TGI,COLO 205 colon,21 µM
same,GI50,DU-145 prostate,4.16 µM
same,TGI,DU-145 prostate,22.3 µM
same,GI50,UACC-62 melanoma,5.44 µM
same,TGI,UACC-62 melanoma,17.9 µM
same,GI50,U251 glioblastoma,9.54 µM
same,TGI,U251 glioblastoma,39.4 µM
same,GI50,OVCAR-5 ovarian,15.4 µM
same,TGI,OVCAR-5 ovarian,29 µM
same,GI50,SK-OV-3 ovarian,1.63 µM
same,TGI,SK-OV-3 ovarian,11.4 µM
same,GI50,RPMI-8226 leukemia,4.44 µM
same,TGI,RPMI-8226 leukemia,16 µM
same,GI50,SK-MEL-2 melanoma,2.71 µM
same,TGI,SK-MEL-2 melanoma,12.4 µM
same,GI50,SW-620 colon,10.6 µM
same,TGI,SW-620 colon,22.9 µM
same,GI50,SN12C renal,1.36 µM
same,TGI,SN12C renal,8.59 µM
same,GI50,NCI/ADR-RES ovarian,5.14 µM
same,TGI,NCI/ADR-RES ovarian,19.7 µM
same,GI50,OVCAR-8 ovarian,5.73 µM
same,TGI,OVCAR-8 ovarian,54.7 µM
same,GI50,HCT-15 colon,2.69 µM
same,TGI,HCT-15 colon,17.6 µM
